Source: PubChem BioAssay (NCI)
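GI50 is the concentration that inhibits growth by half. TGI: concentration producing complete growth inhibition.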

What was measured:
Assay in all cases: NCI-60 cell line screen, 384-well format
NCI-H23 lung = tested on: NCI-H23 lung
NCI-H322M lung = tested on: NCI-H322M lung
NCI-H460 NSCLC = tested on: NCI-H460 NSCLC
NCI-H522 lung = tested on: NCI-H522 lung
NCI/ADR-RES ovarian = tested on: NCI/ADR-RES ovarian
OVCAR-3 ovarian = tested on: OVCAR-3 ovarian
OVCAR-4 ovarian = tested on: OVCAR-4 ovarian
OVCAR-5 ovarian = tested on: OVCAR-5 ovarian
OVCAR-8 ovarian = tested on: OVCAR-8 ovarian
PC-3 prostate = tested on: PC-3 prostate
RPMI-8226 leukemia = tested on: RPMI-8226 leukemia
RXF 393 renal = tested on: RXF 393 renal
SF-268 CNS = tested on: SF-268 CNS
SF-295 CNS = tested on: SF-295 CNS
SF-539 CNS = tested on: SF-539 CNS
SK-MEL-2 melanoma = tested on: SK-MEL-2 melanoma
SK-MEL-28 melanoma = tested on: SK-MEL-28 melanoma
SK-MEL-5 melanoma = tested on: SK-MEL-5 melanoma
SK-OV-3 ovarian = tested on: SK-OV-3 ovarian
SN12C renal = tested on: SN12C renal
SNB-19 CNS = tested on: SNB-19 CNS
SNB-75 CNS = tested on: SNB-75 CNS
SW-620 colon = tested on: SW-620 colon
TK-10 renal = tested on: TK-10 renal
U251 glioblastoma = tested on: U251 glioblastoma
UACC-257 melanoma = tested on: UACC-257 melanoma
UACC-62 melanoma = tested on: UACC-62 melanoma
UO-31 renal = tested on: UO-31 renal

`Cc1cc(-c2cnn3c(NCC4CC(C)(O)C4)cc(Oc4cccnc4)nc23)ccc1C(=O)NC1CC1` (stereo unspecified) showed a GI50 (NCI-H23 lung) of 374 nM, a TGI (NCI-H23 lung) greater than 100000 nM and a GI50 (NCI-H322M lung) of 4570 nM. It also gave a TGI (NCI-H322M lung) of 21200 nM, a GI50 (NCI-H460 NSCLC) of 188 nM and a TGI (NCI-H460 NSCLC) of 11900 nM. The GI50 (NCI-H522 lung) was 467 nM, the TGI (NCI-H522 lung) was 33000 nM and the GI50 (NCI/ADR-RES ovarian) was 5900 nM. For the same compound, the TGI (NCI/ADR-RES ovarian) was greater than 100000 nM, the GI50 (OVCAR-3 ovarian) was 173 nM and the TGI (OVCAR-3 ovarian) was 87900 nM. It also gave a GI50 (OVCAR-4 ovarian) of 5590 nM, a TGI (OVCAR-4 ovarian) greater than 100000 nM and a GI50 (OVCAR-5 ovarian) of 1980 nM. The TGI (OVCAR-5 ovarian) was greater than 100000 nM, the GI50 (OVCAR-8 ovarian) was 80.4 nM and the TGI (OVCAR-8 ovarian) was greater than 100000 nM. It also gave a GI50 (PC-3 prostate) of 1840 nM, a TGI (PC-3 prostate) greater than 100000 nM and a GI50 (RPMI-8226 leukemia) of 305 nM. For the same compound, the TGI (RPMI-8226 leukemia) was 995 nM, the GI50 (RXF 393 renal) was 64.5 nM and the TGI (RXF 393 renal) was 2980 nM. For the same compound, the GI50 (SF-268 CNS) was 2180 nM, the TGI (SF-268 CNS) was greater than 100000 nM and the GI50 (SF-295 CNS) was 1860 nM. The TGI (SF-295 CNS) was greater than 100000 nM, the GI50 (SF-539 CNS) was 45.5 nM and the TGI (SF-539 CNS) was greater than 100000 nM. For the same compound, the GI50 (SK-MEL-2 melanoma) was 431 nM, the TGI (SK-MEL-2 melanoma) was 3540 nM and the GI50 (SK-MEL-28 melanoma) was 11300 nM. For the same compound, the TGI (SK-MEL-28 melanoma) was greater than 100000 nM, the GI50 (SK-MEL-5 melanoma) was 74.5 nM and the TGI (SK-MEL-5 melanoma) was greater than 100000 nM. The GI50 (SK-OV-3 ovarian) was 903 nM, the TGI (SK-OV-3 ovarian) was greater than 100000 nM and the GI50 (SN12C renal) was 1810 nM. It also gave a TGI (SN12C renal) greater than 100000 nM, a GI50 (SNB-19 CNS) greater than 100000 nM and a TGI (SNB-19 CNS) greater than 100000 nM. For the same compound, the GI50 (SNB-75 CNS) was 1910 nM, the TGI (SNB-75 CNS) was greater than 100000 nM and the GI50 (SW-620 colon) was 62.1 nM. For the same compound, the TGI (SW-620 colon) was greater than 100000 nM, the GI50 (TK-10 renal) was 442 nM and the TGI (TK-10 renal) was greater than 100000 nM. The GI50 (U251 glioblastoma) was 65 nM, the TGI (U251 glioblastoma) was greater than 100000 nM and the GI50 (UACC-257 melanoma) was 30700 nM. It also gave a TGI (UACC-257 melanoma) greater than 100000 nM, a GI50 (UACC-62 melanoma) of 972 nM and a TGI (UACC-62 melanoma) of 62100 nM. The GI50 (UO-31 renal) was 686 nM and the TGI (UO-31 renal) was greater than 100000 nM.
